Results: patent publication US12077503B2, “Substituted cyclic amides and their use as herbicides” (FMC CORPORATION, priority 2015, dated 2024)

Experiments:
Assay type in all cases: in vivo
[1] = system: ivy-leaved morning glory (Ipomoea hederacea); assay: Test G Post-Emergence Protocol; conditions: Ipomoea, post-emergence, 312 h, read-out: Morningglory, Ivy-leaved damage rating
Outline: (§1)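 Scores run 0 (no damage) to 100 (total damage) and were taken 13 days after spraying. Plants had been raised in pots for 8 days under glasshouse control (24/16 °C, 14 h photoperiod, 65% humidity) and then treated at 15.625, 62.5 or 250 g/ha.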

[2] = system: redroot pigweed (Amaranthus retroflexus); assay: Test G Post-Emergence Protocol; conditions: Amaranthus retroflexus, post-emergence, 312 h, read-out: Pigweed, Redroot damage rating
Outline: as §1

[3] = system: velvetleaf (Abutilon theophrasti); assay: Test G Post-Emergence Protocol; conditions: Abutilon theophrasti, post-emergence, 312 h, read-out: Velvetleaf damage rating
Outline: as §1

[4] = system: giant foxtail (Setaria faberi); assay: Test G Post-Emergence Protocol; conditions: Setaria faberi, post-emergence, 312 h, read-out: Foxtail, Giant damage rating
Outline: as §1

[5] = system: corn (Zea mays); assay: Test G Post-Emergence Protocol; conditions: Zea mays, post-emergence, 312 h, read-out: Corn damage rating
Outline: as §1

[6] = system: barnyardgrass (Echinochloa crus-galli); assay: Test G Post-Emergence Protocol; conditions: Echinochloa crus-galli, post-emergence, 312 h, read-out: Barnyardgrass damage rating
Outline: as §1

[7] = system: ivy-leaved morning glory (Ipomoea hederacea); assay: Test G Pre-Emergence Protocol; conditions: Ipomoea, pre-emergence, 312 h, evaluated after 13 days
Outline: (§2)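 Spraying took place one day after sowing, at 15.625, 62.5 or 250 g/ha, using an acetone/water (50:50) spray solution containing 0.5% Tween 20. Plants were kept under glasshouse conditions (24/16 °C, 14 h light, 65% humidity, watered twice daily), and injury was rated 0–100 at day 13.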

[8] = system: redroot pigweed (Amaranthus retroflexus); assay: Test G Pre-Emergence Protocol; conditions: Amaranthus retroflexus, pre-emergence, 312 h, evaluated after 13 days
Outline: as §2

[9] = system: velvetleaf (Abutilon theophrasti); assay: Test G Pre-Emergence Protocol; conditions: Abutilon theophrasti, pre-emergence, 312 h, evaluated after 13 days
Outline: as §2

[10] = system: giant foxtail (Setaria faberi); assay: Test G Pre-Emergence Protocol; conditions: Setaria faberi, pre-emergence, 312 h, evaluated after 13 days
Outline: as §2

[11] = system: corn (Zea mays); assay: Test G Pre-Emergence Protocol; conditions: Zea mays, pre-emergence, 312 h, evaluated after 13 days
Outline: as §2

[12] = system: barnyardgrass (Echinochloa crus-galli); assay: Test G Pre-Emergence Protocol; conditions: Echinochloa crus-galli, pre-emergence, 312 h, evaluated after 13 days
Outline: as §2

[13] = 15.625 g ai/ha, evaluated after 13 days (100=total damage to plant; 0=no damage to plant)
[14] = 62.5 g ai/ha, evaluated after 13 days, 100=total damage to plant, 0=no damage to plant
[15] = 250 g ai/ha, evaluated after 13 days, 100=total damage to plant, 0=no damage to plant

CCOc1cc(C)cc(C2CN(C)C(=O)C2C(=O)Nc2cccc(F)c2F)c1 (stereo not drawn) [Compound 1692]
pest or weed control at 15.625 g/ha [1, 13]: 40% | pest or weed control at 62.5 g/ha [1, 14]: 30% | pest or weed control at 250 g/ha [1, 15]: 70% | pest or weed control at 15.625 g/ha [2, 13]: 0% | pest or weed control at 62.5 g/ha [2, 14]: 40% | pest or weed control at 250 g/ha [2, 15]: 40% | pest or weed control at 15.625 g/ha [3, 13]: 0% | pest or weed control at 62.5 g/ha [3, 14]: 20% | pest or weed control at 250 g/ha [3, 15]: 30% | pest or weed control at 15.625 g/ha [4, 13]: 60% | pest or weed control at 62.5 g/ha [4, 14]: 80% | pest or weed control at 250 g/ha [4, 15]: 80% | plant injury at 15.625 g/ha [5, 13]: 20% | plant injury at 62.5 g/ha [5, 14]: 50% | plant injury at 250 g/ha [5, 15]: 80% | pest or weed control at 15.625 g/ha [6, 13]: 40% | pest or weed control at 62.5 g/ha [6, 14]: 70% | pest or weed control at 250 g/ha [6, 15]: 80% | pest or weed control at 15.625 g/ha ([7]; 15.625 g ai/ha, read-out: Morningglory, Ivy-leaved damage rating (100=total damage to plant; 0=no damage to plant)): 0% | pest or weed control at 62.5 g/ha ([7]; 62.5 g ai/ha, 100=total damage to plant, 0=no damage to plant, read-out: Morningglory, Ivy-leaved damage rating): 0% | pest or weed control at 250 g/ha ([7]; 250 g ai/ha, read-out: Morningglory, Ivy-leaved damage rating (100=total damage to plant; 0=no damage to plant)): 30% | pest or weed control at 15.625 g/ha ([8]; 15.625 g ai/ha, read-out: Pigweed, Redroot damage rating (100=total damage to plant; 0=no damage to plant)): 0% | pest or weed control at 62.5 g/ha ([8]; 62.5 g ai/ha, 100=total damage to plant, 0=no damage to plant, read-out: Pigweed, Redroot damage rating): 10% | pest or weed control at 250 g/ha ([8]; 250 g ai/ha, read-out: Pigweed, Redroot damage rating (100=total damage to plant; 0=no damage to plant)): 10% | pest or weed control at 15.625 g/ha ([9]; 15.625 g ai/ha, read-out: Velvetleaf damage rating (100=total damage to plant; 0=no damage to plant)): 0% | pest or weed control at 62.5 g/ha ([9]; 62.5 g ai/ha, 100=total damage to plant, 0=no damage to plant, read-out: Velvetleaf damage rating): 0% | pest or weed control at 250 g/ha ([9]; 250 g ai/ha, read-out: Velvetleaf damage rating (100=total damage to plant; 0=no damage to plant)): 20% | pest or weed control at 15.625 g/ha ([10]; 15.625 g ai/ha, read-out: Foxtail, Giant damage rating (100=total damage to plant; 0=no damage to plant)): 60% | pest or weed control at 62.5 g/ha ([10]; 62.5 g ai/ha, 100=total damage to plant, 0=no damage to plant, read-out: Foxtail, Giant damage rating): 80% | pest or weed control at 250 g/ha ([10]; 250 g ai/ha, read-out: Foxtail, Giant damage rating (100=total damage to plant; 0=no damage to plant)): 90% | plant injury at 15.625 g/ha ([11]; 15.625 g ai/ha, read-out: Corn damage rating (100=total damage to plant; 0=no damage to plant)): 0% | plant injury at 62.5 g/ha ([11]; 62.5 g ai/ha, 100=total damage to plant, 0=no damage to plant, read-out: Corn damage rating): 60% | plant injury at 250 g/ha ([11]; 250 g ai/ha, read-out: Corn damage rating (100=total damage to plant; 0=no damage to plant)): 80% | pest or weed control at 15.625 g/ha ([12]; 15.625 g ai/ha, read-out: Barnyardgrass damage rating (100=total damage to plant; 0=no damage to plant)): 20% | pest or weed control at 62.5 g/ha ([12]; 62.5 g ai/ha, 100=total damage to plant, 0=no damage to plant, read-out: Barnyardgrass damage rating): 70% | pest or weed control at 250 g/ha ([12]; 250 g ai/ha, read-out: Barnyardgrass damage rating (100=total damage to plant; 0=no damage to plant)): 80%
